Assay results as given in ChEMBL document CHEMBL5500393, “Discovery and Optimization of Novel SaFabI Inhibitors as Specific Therapeutic Agents for MRSA Infection” (J Med Chem, 2024).
≈ marks a conversion by molar mass, not a printed value. Calls of active or inactive are those of the source. The rule behind the calls is not given here.

Legend:
[1] = target: T1, Enoyl-[acyl-carrier-protein] reductase [NADPH] FabI (Staphylococcus aureus) (UniProt Q6GI75); test: Inhibition of N-terminal his 6 tagged Staphylococcus aureus Fabi (1 to […] residues) expressed in Escherichia coli BL21 at 10 uM incubated for 30 mins in presence of NADPH by fluorescence based microplate reader analysis relative to control
T1 sequence (whole entry): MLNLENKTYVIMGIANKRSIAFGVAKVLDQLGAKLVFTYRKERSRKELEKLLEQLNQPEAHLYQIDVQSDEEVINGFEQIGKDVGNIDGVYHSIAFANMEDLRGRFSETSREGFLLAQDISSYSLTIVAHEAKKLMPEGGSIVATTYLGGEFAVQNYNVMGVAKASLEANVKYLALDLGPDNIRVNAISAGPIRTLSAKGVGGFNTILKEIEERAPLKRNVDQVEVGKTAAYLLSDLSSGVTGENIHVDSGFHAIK

Staphylococcus aureus [2] = test: Antimicrobial activity against […] Staphylococcus aureus ATCC43300 measured after 24 hrs by CLSI protocol based microdilution method; assay type: functional
Staphylococcus aureus [3] = test: Antimicrobial activity against […] Staphylococcus aureus USA300 measured after 24 hrs by CLSI protocol based microdilution method; assay type: functional
Staphylococcus aureus [4] = test: Antimicrobial activity against […] Staphylococcus aureus NRS271 measured after 24 hrs by CLSI protocol based microdilution method; assay type: functional
Staphylococcus aureus [5] = test: Antimicrobial activity against methicillin-susceptible Staphylococcus aureus ATCC29213 measured after 24 hrs by CLSI protocol based microdilution method; assay type: functional
Escherichia coli = test: Antimicrobial activity against Escherichia coli ATCC25922 measured after 24 hrs by CLSI protocol based microdilution method; assay type: functional
Candida albicans = test: Antimicrobial activity against Candida albicans SC5314 measured after 48 hrs by CLSI protocol based microdilution method; assay type: functional
HepG2 = test: Cytotoxicity against human HepG2 cells assessed as survival rate at 400 uM measured after 48 hrs by CCK-8 method relative to control; assay type: functional; conditions: read-out: Survival
[6] = Cytotoxicity against HEK293 cells assessed as survival rate at 800 uM measured after 48 hrs by CCK-8 method relative to control; assay type: toxicity, cell-based; conditions: human, read-out: Survival
[7] = Hemolytic activity in sheep erythrocytes assessed as hemolysis at 128 ug/ml incubated for 1 hr by microplate reader based analysis relative to control; assay type: toxicity, cell-based, Ovis aries, Erythrocyte; conditions: at 128 µg/mL, read-out: Activity
Staphylococcus aureus [8] = test: Bactericidal activity against […] Staphylococcus aureus ATCC33591 measured upto 24 hr by time-kill assay; assay type: functional, organism-based
Staphylococcus aureus [9] = test: Bactericidal activity against […] Staphylococcus aureus ATCC33591 assessed as reduction in bacterial count at 4 times MIC measured within 24 hrs by time-kill assay; assay type: functional, organism-based
Cell membrane [10] = test: Induction of cell membrane permeability in methicillin-resistant Staphylococcus aureus ATCC33591 assessed as increase in fluorescence measured after 30 mins by Annexin V-FITC staining based analysis; assay type: cell membranes
Cell membrane [11] = test: Induction of cell membrane permeability in methicillin-resistant Staphylococcus aureus ATCC33591 assessed as fold increase in fluorescence intensity at 1 times MIC measured after 30 mins by 7-AAD staining based analysis; assay type: cell membranes
Cell membrane [12] = test: Induction of cell membrane damage in methicillin-resistant Staphylococcus aureus ATCC33591 assessed as increase in red fluorescence at 1 times MIC measured after 30 mins by […] analysis; assay type: cell membranes
Staphylococcus aureus [13] = test: Antimicrobial activity against […] Staphylococcus aureus ATCC33591 assessed as reduction in lipid content at 8 times MIC measured after 4 hrs by microplate reader based analysis; assay type: functional, organism-based
Staphylococcus aureus [14] = test: Antimicrobial activity against Staphylococcus aureus RN4220 harbouring pCM-sfgfp measured after 24 hrs by CLSI protocol based microdilution method; assay type: functional
Staphylococcus aureus [15] = test: Antimicrobial activity against Staphylococcus aureus RN4220 harbouring pCM-sfgfp::fabi (promoter-sarA) measured after 24 hrs by CLSI protocol based microdilution method; assay type: functional
[16] = target: T1, Enoyl-[acyl-carrier-protein] reductase [NADPH] FabI (Staphylococcus aureus); test: Binding affinity to N-terminal his 6 tagged Staphylococcus aureus Fabi (1 to […] residues) expressed in Escherichia coli BL21 assessed as increase in thermal stability at 10 ug/ml measured after 1 hr by […] assay; conditions: dose 10.0 µg/ml
[17] = Acute toxicity in female BALB/c mouse assessed as abnormal behaviour at 800 mg/kg, po measured after 14 days; assay type: organism-based; conditions: in vivo, 336 h, time 14 day
[18] = Acute toxicity in female BALB/c mouse assessed as effect on body weight at 800 mg/kg, po measured after 14 days; assay type: organism-based; conditions: in vivo, 336 h, time 14 day
[19] = Acute toxicity in female BALB/c mouse assessed as effect on ALB level in serum at 800 mg/kg, po measured after 14 days; assay type: organism-based; conditions: in vivo, 336 h, time 14 day
[20] = Acute toxicity in female BALB/c mouse assessed as effect on ALT level in serum at 800 mg/kg, po measured after 14 days; assay type: organism-based; conditions: in vivo, 336 h, time 14 day
[21] = Acute toxicity in female BALB/c mouse assessed as effect on AST level in serum at 800 mg/kg, po measured after 14 days; assay type: organism-based; conditions: in vivo, 336 h, time 14 day
[22] = Acute toxicity in female BALB/c mouse assessed as effect on lung at 800 mg/kg, po measured after 14 days by H and E staining based analysis; assay type: organism-based; conditions: in vivo, 336 h, time 14 day
[23] = Drug concentration in BALB/c mouse plasma at 400 mg/kg, po measured after 1 hr by LC-MS analysis; assay type: ADME, organism-based
[24] = Drug concentration in BALB/c mouse plasma at 1200 mg/kg, po measured after 1 hr by LC-MS analysis; assay type: ADME, organism-based
[25] = Aqueous solubility of the compound measured after 24 hrs by HPLC analysis; assay type: physicochemical
[26] = Metabolic stability in human liver microsomes assessed as half life at 1 uM measured upto 120 mins in presence of NADPH by LC-MS analysis; assay type: ADME, Microsome
[27] = Metabolic stability in human liver microsomes assessed as intrinsic clearance at 1 uM measured upto 120 mins in presence of NADPH by LC-MS analysis; assay type: ADME, Microsome; conditions: read-out: CLH
[28] = Metabolic stability in mouse liver microsomes assessed as intrinsic clearance at 1 uM measured upto 120 mins in presence of NADPH by LC-MS analysis; assay type: ADME, Microsome; conditions: read-out: CLH
[29] = Cmax in female Sprague-Dawley rat at 5 mg/kg, iv measured upto 24 hrs by LC-MS analysis; assay type: ADME, organism-based; conditions: in vivo
[30] = Half life in female Sprague-Dawley rat at 5 mg/kg, iv measured upto 24 hrs by LC-MS analysis; assay type: ADME, organism-based; conditions: in vivo
[31] = AUC (0 to t) in female Sprague-Dawley rat at 5 mg/kg, iv measured upto 24 hrs by LC-MS analysis; assay type: ADME, organism-based; conditions: in vivo
[32] = Cmax in female Sprague-Dawley rat at 20 mg/kg, po measured upto 24 hrs by LC-MS analysis; assay type: ADME, organism-based; conditions: in vivo
[33] = Clearance in female Sprague-Dawley rat at 20 mg/kg, po measured upto 24 hrs by LC-MS analysis; assay type: ADME, organism-based; conditions: in vivo
[34] = AUC (0 to t) in female Sprague-Dawley rat at 20 mg/kg, po measured upto 24 hrs by LC-MS analysis; assay type: ADME, organism-based; conditions: in vivo

SMILES	inhibition [1]	MIC (Staphylococcus aureus [2])	MIC (Staphylococcus aureus [3])	MIC (Staphylococcus aureus [4])	MIC (Staphylococcus aureus [5])	MIC (Escherichia coli)	MIC (Candida albicans)	viability at 400 µM (HepG2)	viability at 48 h, 800 µM [6]	hemolysis at 1 h, 128 ug/ml [7]	Activity (Staphylococcus aureus [8])	Activity (Staphylococcus aureus [9])	Activity (Cell membrane [10])	fold change (FC) (Cell membrane [11])	Activity (Cell membrane [12])	Activity (Staphylococcus aureus [13])	MIC (Staphylococcus aureus [14])	MIC (Staphylococcus aureus [15])	Activity [16]	Activity [17]	further results
Cc1c(Br)cccc1N1CC(c2nc3ccccc3n2C)CC1=O (centres undefined)	98.7%	1 µg/mL (≈ 2.6 µM)	1 µg/mL (≈ 2.6 µM)	2 µg/mL (≈ 5.2 µM)	1 µg/mL (≈ 2.6 µM)	> 32 µg/mL	> 32 µg/mL	> 70%	> 75%	5%	Dose-Dependent Effect	Below limit of detection	Active	1.9	Active	Active	2 µg/mL (≈ 5.2 µM)	> 32 µg/mL	Active	Non-Toxic	Activity [18]: Non-Toxic; Activity [19]: Non-Toxic; Activity [20]: Non-Toxic; Activity [21]: Non-Toxic; Activity [22]: Non-Toxic; concentration at 1 h [23]: 24000 ng/mL; concentration at 1 h [24]: 72100 ng/mL; solubility at 24 h [25]: 388 µg/mL (≈ 1010 µM); half-life at 1 µM [26]: 1.06 h; CLint scaled at 1 µM [27]: 27.3 mL/min/kg; CLint scaled at 1 µM [28]: 197 mL/min/kg; Cmax [29]: 3240 ng/mL; t1/2 [30]: 1.1 h; AUCt [31]: 3238.8 ng·h/mL; Cmax [32]: 1520 ng/mL; CL/F [33]: 26.7 mL/min/kg; AUCt [34]: 11149.1 ng·h/mL
COc1c(Br)cccc1N1CC(c2nc3ccccc3n2C)CC1=O (centres undefined)	99.3%	2 µg/mL (≈ 5 µM)	1 µg/mL (≈ 2.5 µM)	2 µg/mL (≈ 5 µM)	1 µg/mL (≈ 2.5 µM)	> 32 µg/mL	> 32 µg/mL	> 70%	> 65%	3.4%	Dose-Dependent Effect	Below limit of detection	Active	1.8	Active	Active	2 µg/mL (≈ 5 µM)	> 32 µg/mL	Active	Non-Toxic	Activity [18]: Non-Toxic; Activity [19]: Non-Toxic; Activity [20]: Non-Toxic; Activity [21]: Non-Toxic; Activity [22]: Non-Toxic; concentration at 1 h [23]: 18100 ng/mL; concentration at 1 h [24]: 46500 ng/mL; solubility at 24 h [25]: 467 µg/mL (≈ 1170 µM); half-life at 1 µM [26]: 0.638 h; CLint scaled at 1 µM [27]: 45.4 mL/min/kg; CLint scaled at 1 µM [28]: 414 mL/min/kg; Cmax [29]: 2720 ng/mL; t1/2 [30]: 1.1 h; AUCt [31]: 2264.4 ng·h/mL; Cmax [32]: 1270 ng/mL; CL/F [33]: 86.7 mL/min/kg; AUCt [34]: 3127 ng·h/mL
